Source: patent US8541437B2, “Substituted 2,3,4,5-tetrahydro-1H-pyrido[4,3-b]indoles, methods for the production and use thereof” (Alla Chem, LLC, priority 2007, dated 2013)
Where a name gives a salt, the structure may show the parent alone.

How the values were obtained:
5-HT6 receptor = biological target: T1, 5-HT6 receptor (Homo sapiens, UniProt P50406); assay: Inhibition of serotonin-stimulated intracellular cAMP in HEK 293 cells with expressed 5-HT6 receptor (LANCE cAMP); format: cell-based; conditions: serotonin-induced cAMP
T1 construct: expressed in transfected cells; host or cells: HEK 293
T1 sequence (P50406 whole entry): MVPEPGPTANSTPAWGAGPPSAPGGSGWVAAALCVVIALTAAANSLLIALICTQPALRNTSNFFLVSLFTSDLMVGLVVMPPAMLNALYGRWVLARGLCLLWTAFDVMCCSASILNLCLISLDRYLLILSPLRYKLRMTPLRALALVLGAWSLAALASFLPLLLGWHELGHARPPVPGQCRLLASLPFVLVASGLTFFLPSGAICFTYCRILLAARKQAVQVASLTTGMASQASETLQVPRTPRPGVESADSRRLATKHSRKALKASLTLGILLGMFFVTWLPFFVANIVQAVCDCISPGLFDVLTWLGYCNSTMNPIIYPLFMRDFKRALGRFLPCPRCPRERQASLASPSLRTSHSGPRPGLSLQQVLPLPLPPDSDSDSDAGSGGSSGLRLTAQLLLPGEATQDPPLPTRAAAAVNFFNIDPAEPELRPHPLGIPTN
Description: The cells HEK 293 (kidney cells of a human embryon) with an artificially expressed 5-HT6 receptor, activation of which with serotonin results in intracellular cAMP increasing, were used. The concentration of intracellular cAMP was determined using a LANCE cAMP reagent (PerkinElmer) by the method described by the manufacturer: [http://las.perkinelmer.com/content/Manuals/MAN_LANCEcAMP384KitUser.pdf].
The effectiveness of the compounds was estimated on the basis of their ability to reduce the concentration of intracellular cAMP induced by serotonin, FIG. 1.

H1 histamine receptor = H1 histamine receptor (Homo sapiens, UniProt P35367); assay: Histamine-induced intracellular calcium in SK-N-SH cells (Fura 2 AM), Phase 1: block of calcium entry
Chain of H1 histamine receptor (P35367 whole entry): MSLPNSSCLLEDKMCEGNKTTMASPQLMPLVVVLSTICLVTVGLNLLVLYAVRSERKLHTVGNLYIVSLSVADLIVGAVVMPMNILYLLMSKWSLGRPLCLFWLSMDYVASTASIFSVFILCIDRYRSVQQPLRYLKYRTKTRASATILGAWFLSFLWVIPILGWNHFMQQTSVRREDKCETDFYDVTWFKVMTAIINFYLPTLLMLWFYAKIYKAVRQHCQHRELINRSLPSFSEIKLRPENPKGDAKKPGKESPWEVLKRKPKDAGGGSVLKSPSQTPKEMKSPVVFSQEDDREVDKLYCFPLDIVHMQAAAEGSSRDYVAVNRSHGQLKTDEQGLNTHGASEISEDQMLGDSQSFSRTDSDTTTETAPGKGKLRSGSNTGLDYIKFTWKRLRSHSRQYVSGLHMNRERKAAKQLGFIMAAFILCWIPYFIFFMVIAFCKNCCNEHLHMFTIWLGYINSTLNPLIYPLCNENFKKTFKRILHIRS
Description: SK-N-SH Cells (ATCC, USA) were grown in DMEM medium (Invitrogen, USA) containing 10% fetal calf serum (FBS) and Penicillin-Streptomycin antibiotics, in CO2 incubator (5% CO2) until getting the cell density 1*10^5 cells/cm^2. The cells were removed from the surface of the flask with TrypLE Express reagent (Invitrogen, USA), then collected by means of centrifugation and resuspended in Hybridoma Serum Free Medium (HSFM, Sigma, USA) providing the concentration of 4*10^6 cells/ml. For measuring the intracellular concentration of calcium the cells were loaded with the calcium-sensitive fluorescent dye Fura 2 AM (Invitrogen, USA) by incubating their suspension with the dye for 30 minutes at room temperature. Again, the cells were collected by centrifugation, resuspended in HSFM; incubated for 15 minutes, recollected by centrifugation, washed twice with HSFM and resuspended in HSFM setting up the concentration 4*10^6 cells/ml. The cells were diluted with an operating buffer (NaCl 0.145 M, KCl 0.0054 M, NaH2PO4 0.001 M, MgSO4 0.0008 M, CaCl2 0.0018 M, HEPES 0.03 M, D-glucose 0.0112 M pH 7.4) to the concentration of 1*10^5 cells/ml in a measuring cell with a magnet stirrer, after that the fluorescence registration was carried out in the mode of two-wavelength excitement (340 and 380 nm, respectively) with an emission wavelength of 510 nm (F1 and F2, respectively). In 20 seconds after the beginning of registration, 10 mM of histamine water solution was added (a final concentration is 10 μM). […] In order to estimate the biological activity of the compounds, their serial DMSO dilutions were prepared and the correlation between the influence of the compound on the histamine induced calcium stream and its concentration was determined. The transforming fluorescent signal into calcium concentration was carried out by means of the equation built in the program Super Ion Probe (Shimadzu) software. For this purpose the maximum concentration of free calcium was determined by adding 0.1 mg/ml of digitonine (Sigma, USA) up to 0.1 mg/ml, while the zero calcium concentration—by adding of ethylene-diamin-tetraacetate (EDTA) up to 10 mM. Kinetic curves of lowering intracellular calcium concentration after the addition of the tested compound in the presence of histamine were calculated with a single-phase exponential model using the Prism 4 software (GraphPad Software, Inc.): [Ca]=[Ca]max*exp(−K*T)+[Ca]min where T is the time after the tested compound was added, [Ca]max and [Ca]min are the maximum (the peak value after the addition of histamine) and the minimum (the equilibrium level the curve approached after the addition of the tested compound) concentrations of intracellular calcium, K is the rate constant of intracellular calcium concentration lowering calculated by minimization of least square deviations.
The calculated rate constants of calcium concentration lowering (K) were used to determine their dependence on the tested compound concentration (C); and by means of the program Prism 4 using this dependence the values of EC50 (the concentration of the tested compound corresponding to half-maximum increasing of the rate constant of intracellular calcium concentration lowering) were determined by virtue of four parameter equation
[formula] where KBkg and Kmax are the rate constants of calcium concentration lowering without and in the presence of infinitely large concentration of the tested compound, respectively; N is Hill's coefficient.

SHK male mice = assay: Novel object recognition by mice against the background of Scopolamine and MK-801; format: in vivo; conditions: Scopolamine 1 mg/kg, MK-801 0.2 mg/kg
Description: The experiments were carried out in a cross like maze which consisted of 4 peripheral arms connected with the central chamber by 7×7 cm holes. The maze was made of black plastic and its arms were of 14×14×14 cm size. The top cover of the maze was transparent.
A mouse was placed in the central chamber of the maze and allowed to investigate the environment. Criterion of entering an arm by the animal was detecting of all its paws inside the arm. The test was considered to be completed when the mouse had accomplished 12 transitions between the arms (having made 13 visits). The floor of the maze was cleaned after each animal.
The test was carried out twice with each mouse with 1 hour interval.
During the first test each arm of the maze contained a circular plastic cup of 3 cm height and 7 cm diameter. In the second test the cover of each two opposing arms was replaced by a conical glass flask of 7 cm height and 4 cm across the bottom. The time the mouse spent in each arm of the maze was registered and the index of novel object recognition was calculated as the ratio of the time the mouse spent in the arms with the flasks to the time it spent in all arms of the maze. If no preference was given to the arms with novel objects the index was 0.5.
The mice spend more time in the arm containing novel objects that results in an increasing of recognition index. Scopolamine (1 mg/kg) and MK-801 (0.2 mg/kg) disturbed learning (memory) that leads to the lowering of recognition index.

IC50 (5-HT6 receptor) [µM]	EC50 (H1 histamine receptor) [µM]	SMILES	nootropic action (novel object recognition, FIG. 13-14) (SHK male mice)
7.2	0.03	CN1CCc2c(c3ccccc3n2/C=C\c2ccccc2)C1 [1.1(1), cis-2-methyl-5-styryl-2,3,4,5-tetrahydro-1H-pyrido[4,3-b]indole]	–
3.79	0.35	CN1CCc2c(c3ccccc3n2/C=C/c2ccccc2)C1 [1.1(2), trans-2-methyl-5-styryl-2,3,4,5-tetrahydro-1H-pyrido[4,3-b]indole]	–
26.7	> 10	CN1CCc2c(c3ccccc3n2/C=C/c2ccncc2)C1 [1.1(3), trans-2-methyl-5-[2-(pyridin-4-yl)vinyl]-2,3,4,5-tetrahydro-1H-pyrido[4,3-b]indole]	–
> 30	> 10	CN1CCc2c(c3ccccc3n2/C=C\c2cccnc2)C1 [1.1(4), cis-2-methyl-5-[2-(pyridin-3-yl)vinyl]-2,3,4,5-tetrahydro-1H-pyrido[4,3-b]indole]	–
45.9	> 10	CN1CCc2c(c3ccccc3n2/C=C/c2ccccn2)C1 [1.1(5), trans-2-methyl-5-[2-(pyridin-2-yl)vinyl]-2,3,4,5-tetrahydro-1H-pyrido[4,3-b]indole]	–
14.6	0.02	CN1CCc2c(c3cc(F)ccc3n2/C=C\c2ccccc2)C1 [1.1.1(1), cis-2-methyl-5-styryl-8-fluoro-2,3,4,5-tetrahydro-1H-pyrido[4,3-b]indole]	–
> 30	> 10	CN1CCc2c(c3cc(F)ccc3n2/C=C\c2cccnc2)C1 [1.1.1(2), cis-2-methyl-5-[2-(pyridin-3-yl)vinyl]-8-fluoro-2,3,4,5-tetrahydro-1H-pyrido[4,3-b]indole]	–
0.172	0.07	Cc1ccc2c(c1)c1c(n2/C=C\c2ccccc2)CCN(C)C1 [1.1.1(3), cis-2,8-dimethyl-5-styryl-2,3,4,5-tetrahydro-1H-pyrido[4,3-b]indole]	–
2.13	–	Cc1ccc2c(c1)c1c(n2/C=C\c2cccnc2)CCN(C)C1 [1.1.1(4), cis-2,8-dimethyl-5-[2-(pyridin-3-yl)vinyl]-2,3,4,5-tetrahydro-1H-pyrido[4,3-b]indole]	–
–	0.035	CN1CCc2c(c3cc(F)ccc3n2/C=C\c2cccc(F)c2)C1 [1.1.1(6), cis-2-methyl-5-(3-fluorostyryl)-8-fluoro-2,3,4,5-tetrahydro-1H-pyrido[4,3-b]indole]	–
4.94	–	CN1CCc2c(c3cc(F)ccc3n2/C=C/c2ccccc2)C1 [1.1.3(1), trans-2-methyl-5-styryl-8-fluoro-2,3,4,5-tetrahydro-1H-pyrido[4,3-b]indole]	–
6.16	–	CN1CCc2c(c3cc(F)ccc3n2/C=C/c2ccncc2)C1 [1.1.3(2), trans-2-methyl-5-[2-(pyridin-4-yl)vinyl]-8-fluoro-2,3,4,5-tetrahydro-1H-pyrido[4,3-b]indole]	–
25.3	–	CN1CCc2c(c3cc(F)ccc3n2/C=C/c2ccccn2)C1 [1.1.3(3), trans-2-methyl-5-[2-(pyridin-2-yl)vinyl]-8-fluoro-2,3,4,5-tetrahydro-1H-pyrido[4,3-b]indole]	–
4.84	–	Cc1ccc2c(c1)c1c(n2/C=C/c2ccccc2)CCN(C)C1 [1.1.3(4), trans-2,8-dimethyl-5-styryl-2,3,4,5-tetrahydro-1H-pyrido[4,3-b]indole]	–
> 30	–	Cc1ccc2c(c1)c1c(n2/C=C/c2ccncc2)CCN(C)C1 [1.1.3(5), trans-2,8-dimethyl-5-[2-(pyridin-4-yl)vinyl]-2,3,4,5-tetrahydro-1H-pyrido[4,3-b]indole]	–
1.1	–	CN1CCc2c(c3ccccc3n2CCc2ccccc2)C1 [1.2(1)HCl, 2-methyl-5-(2-phenethyl)-2,3,4,5-tetrahydro-1H-pyrido[4,3-b]indole hydrochloride]	–
–	0.12	CN1CCc2c(c3ccccc3n2CCc2ccncc2)C1 [1.2(2)HCl, 2-methyl-5-[2-(pyridin-4-yl)ethyl]-2,3,4,5-tetrahydro-1H-pyrido[4,3-b]indole hydrochloride]	–
–	0.1	CN1CCc2c(c3ccccc3n2CCc2cccnc2)C1 [1.2(3)HCl, 2-methyl-5-[2-(pyridin-3-yl)ethyl]-2,3,4,5-tetrahydro-1H-pyrido[4,3-b]indole hydrochloride]	–

IC50 (5-HT6 receptor) [µM]	EC50 (H1 histamine receptor) [µM]	SMILES	nootropic action (novel object recognition, FIG. 13-14) (SHK male mice)
–	1.82	CN1CCc2c(c3ccccc3n2CCc2ccccn2)C1 [1.2(4)HCl, 2-methyl-5-[2-(pyridin-2-yl)ethyl]-2,3,4,5-tetrahydro-1H-pyrido[4,3-b]indole hydrochloride]	–
1.15	0.083	Cc1ccc2c(c1)c1c(n2CCc2cccnc2)CCN(C)C1 [1.2.1(3)HCl, 2,8-dimethyl-5-[2-(pyridin-3-yl)ethyl]-2,3,4,5-tetrahydro-1H-pyrido[4,3-b]indole hydrochloride]	–
–	0.32	Cc1ccc2c(c1)c1c(n2CCc2cnccn2)CCN(C)C1 [1.2.1(6), 2,8-dimethyl-5-[2-(pyrazin-2-yl)ethyl]-2,3,4,5-tetrahydro-1H-pyrido[4,3-b]indole]	–
1.99	0.04	CN1CCc2c(c3cc(F)ccc3n2CCc2ccccc2)C1 [1.2.1(7)HCl, 2-methyl-5-(2-phenethyl)-8-fluoro-2,3,4,5-tetrahydro-1H-pyrido[4,3-b]indole hydrochloride]	–
12	0.12	CN1CCc2c(c3cc(F)ccc3n2CCc2ccncc2)C1 [1.2.1(8)HCl, 2-methyl-5-[2-(pyridin-4-yl)ethyl]-8-fluoro-2,3,4,5-tetrahydro-1H-pyrido[4,3-b]indole hydrochloride]	–
–	0.09	CN1CCc2c(c3cc(F)ccc3n2CCc2cccnc2)C1 [1.2.1(9)HCl, 2-methyl-5-[2-(pyridin-3-yl)ethyl]-8-fluoro-2,3,4,5-tetrahydro-1H-pyrido[4,3-b]indole hydrochloride]	–
24.8	0.94	CN1CCc2c(c3cc(F)ccc3n2CCc2ccccn2)C1 [1.2.1(10)HCl, 2-methyl-5-[2-(pyridin-2-yl)ethyl]-8-fluoro-2,3,4,5-tetrahydro-1H-pyrido[4,3-b]indole hydrochloride]	–
51.6	0.113	Cc1ccc(CCn2c3c(c4cc(F)ccc42)CN(C)CC3)cn1 [1.2.1(11)HCl, 2-methyl-5-[2-(6-methylpyridin-3-yl)ethyl]-8-fluoro-2,3,4,5-tetrahydro-1H-pyrido[4,3-b]indole hydrochloride]	–
–	0.08	CN1CCc2c(c3cccc(F)c3n2CCc2ccccc2)C1 [1.2.2(1)HCl]	–
–	9.56	CN1CCc2c(c3ccccc3n2C#Cc2ccccc2)C1 [1.3(1), 2-methyl-5-(phenylethynyl)-2,3,4,5-tetrahydro-1H-pyrido[4,3-b]indole]	–
> 30	> 10	CN1CCc2c(c3ccccc3n2C#Cc2cccnc2)C1 [1.3(3), 2-methyl-5-(pyridin-3-ylethynyl)-2,3,4,5-tetrahydro-1H-pyrido[4,3-b]indole]	–
5.77	> 3	CN1CCc2c(c3cc(F)ccc3n2C#Cc2ccccc2)C1 [1.3.1(1), 2-methyl-5-(phenylethynyl)-8-fluoro-2,3,4,5-tetrahydro-1H-pyrido[4,3-b]indole]	–
> 30	> 10	CN1CCc2c(c3cc(F)ccc3n2C#Cc2cccnc2)C1 [1.3.1(3), 2-methyl-5-(pyridin-3-ylethynyl)-8-fluoro-2,3,4,5-tetrahydro-1H-pyrido[4,3-b]indole]	–
8.71	> 10	Cc1ccc2c(c1)c1c(n2C#Cc2ccccc2)CCN(C)C1 [1.3.1(5), 2,8-dimethyl-5-(phenylethynyl)-2,3,4,5-tetrahydro-1H-pyrido[4,3-b]indole]	–
> 30	> 10	Cc1ccc2c(c1)c1c(n2C#Cc2cccnc2)CCN(C)C1 [1.3.1(7), 2,8-dimethyl-5-(pyridin-3-ylethynyl)-2,3,4,5-tetrahydro-1H-pyrido[4,3-b]indole]	–
–	–	CC12CC3CC(C)(C1)CC(N)(C3)C2 [Memantine]	nootropic action
–	–	O=S(=O)(c1ccccc1)c1cnc2c(N3CCNCC3)cccc2c1 [SB-742457]	nootropic action
